The source of these data is publication PMC12044245 (Emerging Infectious Diseases, 2025).

Assay type in all cases: biochemical
Assay [1] deals with NA (neuraminidase) of A/Yamagata/135/2023 (Influenza A virus, UniProt C3W5S3).
Assay [2] deals with NA (neuraminidase) of A/Yamagata/336/2023 (Influenza A virus, UniProt C3W5S3).
For assay [3], the target named is NA (neuraminidase) of A/Yamagata/127/2023 (Influenza A virus, UniProt C3W5S3).
For assay [4], the target named is NA (neuraminidase) of A/Yamagata/122/2023 (Influenza A virus, UniProt C3W5S3).
In assay [5] the target is NA (neuraminidase) of A/Yamagata/177/2023 (Influenza A virus, UniProt C3W5S3).
The target in assay [6] is NA (neuraminidase) of A/Yamagata/312/2023 (Influenza A virus, UniProt C3W5S3).
Assay [7] addresses NA (neuraminidase) of A/Yamagata/104/2024 (Influenza A virus, UniProt C3W5S3).
The target of assay [8] is NA (neuraminidase) of A/Yamagata/292/2023 (Influenza A virus, UniProt C3W5S3).

As usually defined, the IC50 is the concentration needed to halve the response being measured. Read a high IC50 as lower potency.

Consider `CCC(CC)[C@H](NC(C)=O)[C@@H]1[C@H](O)[C@@H](C(=O)O)C[C@H]1N=C(N)N` [Peramivir, peramivir], for which the IC50 was 0.08 nM in assay [1]; 0.09 nM in assay [2]; 0.08 nM in assay [3]; 0.08 nM in assay [4]; 0.06 nM in assay [5]; 0.11 nM in assay [6]. Moreover, the IC50 in assay [7] and in assay [8] was 0.09 nM in each case.
